Experimental findings from ChEMBL document CHEMBL5131502, “Improving the treatment of Parkinson's disease: Structure-based development of novel 5-HT2A receptor antagonists/inverse agonists” (Eur J Med Chem, 2022) are described below.

The structures appear in SMILES notation. ≈ marks a conversion by molar mass, not a printed value.

The nature of data set [1]: Apparent volume of distribution during terminal state in Sprague-Dawley rat at 3 mg/kg, IG measured upto 24 hrs by LC-MS/MS analysis. The data set is classed as ADME, organism-based. Conditions: in vivo, po, read-out: Vz/F.
Data set [2] is described as follows: Half life in Sprague-Dawley rat at 3 mg/kg, IG measured upto 24 hrs by LC-MS/MS analysis. The data set is classed as ADME, organism-based. Conditions: in vivo, po.
A short description of data set [3]: Tmax in Sprague-Dawley rat at 3 mg/kg, IG measured upto 24 hrs by LC-MS/MS analysis. It is filed as ADME, organism-based. Conditions: in vivo, po.
Data set [4] can be described thus: Cmax in Sprague-Dawley rat at 3 mg/kg, IG measured upto 24 hrs by LC-MS/MS analysis. The data set is classed as ADME, organism-based. Details: dose 3 mg/kg, time < 24 hrs, route ig. The following applies: in vivo, po.
Data set [5] is described as follows: AUClast in Sprague-Dawley rat at 3 mg/kg, IG measured upto 24 hrs by LC-MS/MS analysis. It is filed as ADME, organism-based. More on the design: time < 24 hrs, dose 3 mg/kg, route ig. The following applies: in vivo, po.
Data set [6] is described as follows: MRTlast in Sprague-Dawley rat at 3 mg/kg, IG measured upto 24 hrs by LC-MS/MS analysis. It is filed as ADME, organism-based. The following applies: in vivo, po.
Data set [7] is described as follows: Plasma protein binding in monkey at 10 uM. It is filed as ADME, cell-free, Macaca mulatta. Conditions: rhesus monkey, read-out: PPB (converted).
A short description of data set [8]: Plasma protein binding in human at 10 uM. Conditions: read-out: PPB (converted). It is filed as ADME, cell-free.
The target in data set [9] is Cytochrome P450 2D6 (Homo sapiens, UniProt P10635). Kind of data set: Inhibition of CYP2D6 (unknown origin). It is filed as ADME.
Sequence of Cytochrome P450 2D6 (P10635 whole entry): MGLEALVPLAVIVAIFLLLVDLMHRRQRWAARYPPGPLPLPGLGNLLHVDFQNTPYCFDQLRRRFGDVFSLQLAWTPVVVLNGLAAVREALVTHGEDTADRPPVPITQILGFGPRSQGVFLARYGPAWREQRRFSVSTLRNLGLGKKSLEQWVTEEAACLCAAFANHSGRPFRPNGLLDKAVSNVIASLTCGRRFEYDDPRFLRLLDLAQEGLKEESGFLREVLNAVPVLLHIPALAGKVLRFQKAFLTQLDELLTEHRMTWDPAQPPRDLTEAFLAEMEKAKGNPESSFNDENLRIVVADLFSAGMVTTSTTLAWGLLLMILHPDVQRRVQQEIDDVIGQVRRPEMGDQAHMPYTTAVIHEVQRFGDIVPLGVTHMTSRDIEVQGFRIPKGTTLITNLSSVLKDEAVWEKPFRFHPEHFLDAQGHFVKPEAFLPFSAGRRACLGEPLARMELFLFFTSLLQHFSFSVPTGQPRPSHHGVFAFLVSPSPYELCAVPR
Data set [10] can be described thus: Metabolic stability in Sprague-Dawley rat liver microsomes assessed as compound remaining at 100 uM […] followed by NADPH addition by LC/MS analysis. The data set is classed as ADME, Microsome. Conditions: read-out: Stability.
Data set [11] can be described thus: Dissociation constant, pKa of the compound. The data set is classed as physicochemical.
Data set [12] is described as follows: Plasma protein binding in rat at 10 uM. The data set is classed as ADME, cell-free. Conditions: read-out: PPB (converted).
Data set [13] can be described thus: AUC(0 to 24 hrs) in mouse at 100 mg/kg by UHPLC/FT-ICR-MS analysis. It is filed as ADME, organism-based. More on the design: time < 24 hr, dose 100 mg/kg. Conditions: in vivo.
Data set [14] in a line: AUC(0 to 24 hrs) in rat at 100 mg/kg by UHPLC/FT-ICR-MS analysis. The following applies: in vivo. The data set is classed as ADME, organism-based. Details: time < 24 hr, dose 100 mg/kg.
Data set [15] is described as follows: AUC(0 to 24 hrs) in monkey at 100 mg/kg by UHPLC/FT-ICR-MS analysis. The following applies: rhesus monkey, in vivo. It is filed as ADME, organism-based, Macaca mulatta. More on the design: time < 24 hr, dose 100 mg/kg.
Data set [16] is described as follows: AUC(0 to 24 hrs) in human at 80 mg/kg/day by UHPLC/FT-ICR-MS analysis. The data set is classed as ADME, organism-based. More on the design: time < 24 hr, dose 80 mg/kg/day. The following applies: in vivo.
A short description of data set [17]: Drug metabolism in mouse assessed as AUC(0 to 24 hrs) for AC-279 metabolite at 100 mg/kg by UHPLC/FT-ICR-MS analysis. It is filed as ADME, organism-based. The following applies: in vivo. More on the design: time < 24 hr, dose 100 mg/kg.
Data set [18] is described as follows: Drug metabolism in rat assessed as AUC(0 to 24 hrs) for AC-279 metabolite at 100 mg/kg by UHPLC/FT-ICR-MS analysis. It is filed as ADME, organism-based. Details: time < 24 hr, dose 100 mg/kg. The following applies: in vivo.
Data set [19] in a line: Drug metabolism in monkey assessed as AUC(0 to 24 hrs) for AC-279 metabolite at 100 mg/kg by UHPLC/FT-ICR-MS analysis. The data set is classed as ADME, organism-based, Macaca mulatta. Details: time < 24 hr, dose 100 mg/kg. Conditions: rhesus monkey, in vivo.
The nature of data set [20]: Drug metabolism in human assessed as AUC(0 to 24 hrs) for AC-279 metabolite at 80 mg/kg/day by UHPLC/FT-ICR-MS analysis. The following applies: in vivo. More on the design: time < 24 hr, dose 80 mg/kg/day. The data set is classed as ADME, organism-based.
Data set [21] can be described thus: Drug metabolism in rat assessed as AUC(0 to 24 hrs) for AC- 423 metabolite at 100 mg/kg by UHPLC/FT-ICR-MS analysis. Details: time < 24 hr, dose 100 mg/kg. It is filed as ADME, organism-based. Conditions: in vivo.
A short description of data set [22]: Drug metabolism in monkey assessed as AUC(0 to 24 hrs) for AC- 423 metabolite at 100 mg/kg by UHPLC/FT-ICR-MS analysis. The data set is classed as ADME, organism-based, Macaca mulatta. More on the design: time < 24 hr, dose 100 mg/kg. The following applies: rhesus monkey, in vivo.
Data set [23] is described as follows: Drug metabolism in human assessed as AUC(0 to 24 hrs) for AC- 423 metabolite at 80 mg/kg/day by UHPLC/FT-ICR-MS analysis. The following applies: in vivo. Details: time < 24 hr, dose 80 mg/kg/day. It is filed as ADME, organism-based.
Data set [24] can be described thus: Drug metabolism in mouse assessed as AUC(0 to 24 hrs) for AC- 527 metabolite at 100 mg/kg by UHPLC/FT-ICR-MS analysis. The following applies: in vivo. More on the design: time < 24 hr, dose 100 mg/kg. The data set is classed as ADME, organism-based.
The nature of data set [25]: Drug metabolism in rat assessed as AUC(0 to 24 hrs) for AC- 527 metabolite at 100 mg/kg by UHPLC/FT-ICR-MS analysis. The data set is classed as ADME, organism-based. Details: time < 24 hr, dose 100 mg/kg. The following applies: in vivo.
Data set [26] is described as follows: Drug metabolism in monkey assessed as AUC(0 to 24 hrs) for AC- 527 metabolite at 100 mg/kg by UHPLC/FT-ICR-MS analysis. The data set is classed as ADME, organism-based, Macaca mulatta. Details: time < 24 hr, dose 100 mg/kg. Conditions: rhesus monkey, in vivo.
Data set [27] is described as follows: Drug metabolism in human assessed as AUC(0 to 24 hrs) for AC- 527 metabolite at 80 mg/kg/day by UHPLC/FT-ICR-MS analysis. It is filed as ADME, organism-based. More on the design: time < 24 hr, dose 80 mg/kg/day. The following applies: in vivo.
A short description of data set [28]: Metabolic stability in Sprague-Dawley rat liver microsomes assessed as half life at 100 uM preincubated for 10 mins followed by NADPH addition by LC/MS analysis. It is filed as ADME, Microsome.
Data set [29] is described as follows: Metabolic stability in human liver microsomes assessed as half life at 100 uM preincubated for 10 mins followed by NADPH addition by LC/MS analysis. It is filed as ADME, Microsome.
Data set [30] can be described thus: Metabolic stability in Sprague-Dawley rat liver microsomes assessed as intrinsic clearance at 100 uM preincubated for 10 mins followed by NADPH addition by LC/MS analysis. The following applies: read-out: CLH. The data set is classed as ADME, Microsome.
Data set [31] in a line: Metabolic stability in human liver microsomes assessed as intrinsic clearance at 100 uM preincubated for 10 mins followed by NADPH addition by LC/MS analysis. The data set is classed as ADME, Microsome. The following applies: read-out: CLH.
Data set [32] in a line: Metabolic stability in human liver microsomes assessed as compound remaining at 100 uM […] followed by NADPH addition by LC/MS analysis. The data set is classed as ADME, Microsome. Conditions: read-out: Stability.
A short description of data set [33]: Lipophilicity, logD of the compound at pH 7.4. The data set is classed as physicochemical. The following applies: buffer.
The nature of data set [34]: Aqueous solubility of compound at pH 7.4. It is filed as physicochemical.
Data set [35] can be described thus: Metabolic stability in dog liver microsomes assessed as compound remaining at 100 uM […] followed by NADPH addition by LC/MS analysis. It is filed as ADME, Canis lupus familiaris, Microsome. Conditions: read-out: Stability.
For data set [36], the target named is T1, Cytochrome P450 1A2 (Homo sapiens, UniProt P05177).
T1 sequence (P05177 whole entry): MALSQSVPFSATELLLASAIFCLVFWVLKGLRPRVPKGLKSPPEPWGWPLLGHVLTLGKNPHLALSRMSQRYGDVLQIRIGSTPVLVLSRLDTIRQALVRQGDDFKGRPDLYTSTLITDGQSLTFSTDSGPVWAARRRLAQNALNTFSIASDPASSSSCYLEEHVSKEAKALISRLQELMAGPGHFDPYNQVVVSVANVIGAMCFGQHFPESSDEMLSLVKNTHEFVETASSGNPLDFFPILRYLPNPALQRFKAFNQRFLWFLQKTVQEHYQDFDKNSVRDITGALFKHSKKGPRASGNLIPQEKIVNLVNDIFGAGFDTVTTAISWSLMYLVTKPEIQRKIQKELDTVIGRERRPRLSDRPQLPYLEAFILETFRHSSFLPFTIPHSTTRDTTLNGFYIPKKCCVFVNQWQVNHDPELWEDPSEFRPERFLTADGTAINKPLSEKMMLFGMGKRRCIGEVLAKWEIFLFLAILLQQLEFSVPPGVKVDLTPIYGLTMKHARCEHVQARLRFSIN
As to the kind of experiment: Inhibition of CYP1A2 (unknown origin). The data set is classed as ADME.

Data set [37] deals with Cytochrome P450 2C9 (Homo sapiens, UniProt P11712). As to the kind of experiment: Inhibition of CYP2C9 (unknown origin). It is filed as ADME.
Sequence of Cytochrome P450 2C9 (P11712 whole entry): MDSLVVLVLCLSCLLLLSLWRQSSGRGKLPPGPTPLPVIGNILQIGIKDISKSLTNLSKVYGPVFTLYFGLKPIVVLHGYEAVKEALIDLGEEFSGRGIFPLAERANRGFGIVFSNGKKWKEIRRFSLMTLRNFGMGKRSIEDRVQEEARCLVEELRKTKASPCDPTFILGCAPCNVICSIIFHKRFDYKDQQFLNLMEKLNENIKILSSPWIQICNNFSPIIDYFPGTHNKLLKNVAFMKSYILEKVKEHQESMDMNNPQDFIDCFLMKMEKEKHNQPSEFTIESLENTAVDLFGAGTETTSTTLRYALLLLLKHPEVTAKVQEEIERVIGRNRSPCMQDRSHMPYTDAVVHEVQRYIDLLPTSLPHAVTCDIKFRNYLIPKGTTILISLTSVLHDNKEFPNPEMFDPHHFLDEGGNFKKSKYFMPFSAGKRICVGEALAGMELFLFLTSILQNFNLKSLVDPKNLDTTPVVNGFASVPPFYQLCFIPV
In data set [38] the target is Cytochrome P450 2C19 (Homo sapiens, UniProt P33261). Kind of data set: Inhibition of CYP2C19 (unknown origin). It is filed as ADME.
Sequence of Cytochrome P450 2C19 (P33261 whole entry): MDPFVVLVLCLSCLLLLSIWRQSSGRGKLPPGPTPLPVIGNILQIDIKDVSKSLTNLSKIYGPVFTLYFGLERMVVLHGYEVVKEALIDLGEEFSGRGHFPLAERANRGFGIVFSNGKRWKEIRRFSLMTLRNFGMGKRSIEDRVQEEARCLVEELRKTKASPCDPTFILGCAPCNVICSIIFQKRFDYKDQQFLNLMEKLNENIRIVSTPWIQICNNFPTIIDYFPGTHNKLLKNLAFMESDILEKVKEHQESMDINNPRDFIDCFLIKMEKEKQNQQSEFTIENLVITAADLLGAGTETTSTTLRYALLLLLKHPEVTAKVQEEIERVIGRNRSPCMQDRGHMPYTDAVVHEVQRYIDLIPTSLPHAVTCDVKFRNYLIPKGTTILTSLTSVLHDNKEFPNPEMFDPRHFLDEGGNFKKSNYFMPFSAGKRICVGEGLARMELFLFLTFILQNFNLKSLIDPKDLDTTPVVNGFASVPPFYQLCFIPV
A short description of data set [39]: Drug distribution in Sprague-Dawley rat brain at 6 micromol/kg administered via gavage measured after 0.5 hr by LC-MS/MS analysis. The data set is classed as ADME, tissue-based. The following applies: in vivo, po, dose 6 µmol/kg.
A short description of data set [40]: Drug distribution in Sprague-Dawley rat brain at 6 micromol/kg administered via gavage measured after 2 hrs by LC-MS/MS analysis. It is filed as ADME, tissue-based. The following applies: in vivo, po, dose 6 µmol/kg.
The nature of data set [41]: Drug distribution in Sprague-Dawley rat brain at 6 micromol/kg administered via gavage measured after 6 hrs by LC-MS/MS analysis. It is filed as ADME, tissue-based. The following applies: in vivo, po, dose 6 µmol/kg.

On to `CC(C)COc1ccc(CNC(=O)N(Cc2ccc(F)cc2)C2CCN(C)CC2)cc1.O=C(O)C(O)C(O)C(=O)O`, for which the Vd/F in data set [1] stood at 0.155 L/kg. Moreover, the half-life in data set [2] was 76.8 min. Further, the Tmax in [3] was 30 min. The Cmax in data set [4] turned out to be 43.3 nM. The compound also showed an AUC(0-t) at 24 h in data set [5] of 0.0786 µM·h. In [6], the mean residence time MRT last at 24 h was determined as 1.82 h.

In the case of `CC(C)COc1ccc(CNC(=O)N(Cc2ccc(F)cc2)C2CCN(C)CC2)cc1` [PIMAVANSERIN], the fraction unbound at 10 µM in [7] was 0.053; in [8], 0.045; in data set [12], 0.037. In addition, the IC50 in data set [9] is > 100 µM; in [36], 52 µM; in [37], > 100 µM; in data set [38] it was 49.8 µM. The remaining at 100 µM is 68.5% in data set [10], 70.7% in [32] and 29.7% in data set [35]. In addition, the pKa in [11] stood at 8.44. Moreover, the figures for the AUC(0-t) at 24 h in [13], in data set [14] and in data set [15] were 4460 ng·h/mL, 3250 ng·h/mL and 7730 ng·h/mL, respectively. Further, the AUC at 24 h in data set [16] stood at 836 ng·h/mL. The AUC in data set [17] was 8210 ng·h/mL; in data set [18], 4320 ng·h/mL; in data set [19] it was 4800 ng·h/mL; in data set [20] it was 527 ng·h/mL; in [21], 18577 ng·h/mL; in data set [22], 2411 ng·h/mL. Besides, the exposure (AUC) is 112 ng·h/mL in data set [23]; 388 ng·h/mL in data set [24]; 1976 ng·h/mL in data set [25]; 1289 ng·h/mL in data set [26]; 236 ng·h/mL in data set [27]. In addition, the half-life at 100 µM in data set [28] turned out to be 107 min; in data set [29] it was 118 min. The CLint scaled at 100 µM in data set [30] amounted to 23.2 mL/min/kg; in data set [31], 11 mL/min/kg. In data set [33], this compound gave a logD of 2.78. In data set [34], this compound returned a solubility of 21 µg/mL (≈ 49.1 µM). The Ct in [39] was determined as 136 nmol/kg; in [40], 171 nmol/kg; in data set [41], 36 nmol/kg.
